Test system: rd1 cones
Experiment: two-photon calcium imaging of cone cell bodies and axon terminals in wholemount rd1 retinas
Assay type: cell-based, mouse
From the text: To measure if NIR light drives responses in cones, the inventors performed two-photon calcium imaging of individual cone cell bodies and axon terminals in wholemount rd1 retinas in three conditions: first, rTRPV1 with 915 nm nanorods, second, rTRPV without nanorods and third, 915 nm nanorods without rTRPV1. To detect calcium signals, the inventors genetically targeted the calcium indicator GCaMP6s to cones via AAV that expresses GCaMP6s under a cone-specific promoter (ProA7). GCaMP6s was expressed in 67±5.1% of rd1 cones (n=12,813 cones mm−2, n=8635 GCaMP6s positive cones mm−2, mean±s.d).
Near-infrared (NIR) pulses were produced by two custom-made, single wavelength NIR diode lasers emitting at 915 nm or 980 nm, modelled after J. Yao, B. Liu, and F. Qin. […] Total laser power output, as a function of driving voltage, was measured by placing cannula (CFM14L20) and patch cable (M37L02) output at the entrance of an integrating sphere photodiode power sensor (Thorlabs, S142C) with a PM100D read-out unit. Oscilloscope read-out of laser response time was obtained by applying a step control voltage to the lasers. […]
For two-photon calcium imaging of mouse cone photoreceptors, wild-type and rd1 retinas were isolated in oxygenated Ringer's medium. […] Fluorescence was analyzed semi-online via custom-made software written in Python by Z. Raics (A. Drinnenberg et al. Neuron 99, 117-134 e111 (2018)). […]

TRPV1.465-6x-His: rat TRPV1 channel with 6x-His epitope tag inserted in the first extracellular loop after amino acid 465; delivered by AAV
reaction of rTRPV1 expressing cones to light without nanorods: did not react to light

— patent US12622965B2, “Therapeutical tools and methods using temperature-sensitive receptors for treating blindness” (FRIEDRICH MIESCHER INSTITUTE FOR BIOMEDICAL RESEARCH, priority 2020, dated 2026)
